Laboratory results: the kinase profiling compilation of Christmann-Franck et al. (2016)

Legend:
Experiment in all cases: TR FRET
Conditions in all cases: compound 0.01 µM
[1] = system: BRAF (human), P15056 [V600E]
[2] = system: KIT (human), P10721 [L576P]
[3] = molecular target: BMX (human) (UniProt P51813)
[4] = molecular target: SRC (human) (UniProt P12931)
[5] = system: FLT3 (human), P36888 [K663Q]
[6] = system: FLT3 (human), P36888 [N841I]
[7] = molecular target: MUSK (human) (UniProt O15146)
[8] = molecular target: MLTK (human) (UniProt Q9NYL2)
[9] = molecular target: TNIK (human) (UniProt Q9UKE5)
[10] = molecular target: DDR1 (human) (UniProt Q08345)
[11] = molecular target: BRAF (human) (UniProt P15056)
[12] = molecular target: NTRK1 (human) (UniProt P04629)
[13] = molecular target: CSF1R (human) (UniProt P07333)
[14] = molecular target: MAP3K2 (human) (UniProt Q9Y2U5)
[15] = system: FLT3 (human), P36888 [D835H]
[16] = system: FLT3 (human), P36888 [D835Y]
[17] = molecular target: IKBKB (human) (UniProt O14920)
[18] = molecular target: PDGFRB (human) (UniProt P09619)
[19] = molecular target: DDR2 (human) (UniProt Q16832)
[20] = molecular target: STK10 (human) (UniProt O94804)
[21] = molecular target: RET (human) (UniProt P07949)
[22] = molecular target: MAP2K5 (human) (UniProt Q13163)
[23] = molecular target: EPHA8 (human) (UniProt P29322)
[24] = system: RET (human), P07949 [M918T]
[25] = molecular target: FGR (human) (UniProt P09769)
[26] = system: RET (human), P07949 [V804M]
[27] = molecular target: JAK3 JH1 catalytic (human) (UniProt P52333)
[28] = molecular target: TNK1 (human) (UniProt Q13470)
[29] = molecular target: TAOK3 (human) (UniProt Q9H2K8)
[30] = system: KIT (human), P10721 [V559D]
[31] = molecular target: MAP3K3 (human) (UniProt Q99759)
[32] = molecular target: MAPK14 (human) (UniProt Q16539)
[33] = molecular target: TIE1 (human) (UniProt P35590)
[34] = molecular target: ANKK1 (human) (UniProt Q8NFD2)
[35] = system: FLT3 (human), P36888 [R834Q]
[36] = molecular target: YES1 (human) (UniProt P07947)
[37] = molecular target: EPHA3 (human) (UniProt P29320)
[38] = molecular target: LCK (human) (UniProt P06239)
[39] = system: EIF2AK4 KD2 (human), Q9P2K8 [S808G]
[40] = molecular target: MAP4K1 (human) (UniProt Q92918)
[41] = molecular target: MAP3K7 (human) (UniProt O43318)
[42] = molecular target: FGFR1 (human) (UniProt P11362)
[43] = molecular target: SGK3 (human) (UniProt Q96BR1)
[44] = molecular target: ULK1 (human) (UniProt O75385)
[45] = molecular target: NTRK3 (human) (UniProt Q16288)
[46] = molecular target: KIT (human) (UniProt P10721)
[47] = molecular target: CHUK (human) (UniProt O15111)
[48] = system: CPK1 (P.falciparum)
[49] = molecular target: MAP4K2 (human) (UniProt Q12851)
[50] = molecular target: TEK (human) (UniProt Q02763)
[51] = molecular target: NTRK2 (human) (UniProt Q16620)
[52] = molecular target: EPHA4 (human) (UniProt P54764)
[53] = molecular target: FLT3 (human) (UniProt P36888)
[54] = molecular target: CSK (human) (UniProt P41240)
[55] = molecular target: BLK (human) (UniProt P51451)
[56] = system: KIT (human), P10721 [V559D/T670I]
[57] = molecular target: HCK (human) (UniProt P08631)
[58] = molecular target: LYN (human) (UniProt P07948)
[59] = molecular target: PDGFRA (human) (UniProt P16234)

Sequence of RET (human) (P07949 whole entry, looked up): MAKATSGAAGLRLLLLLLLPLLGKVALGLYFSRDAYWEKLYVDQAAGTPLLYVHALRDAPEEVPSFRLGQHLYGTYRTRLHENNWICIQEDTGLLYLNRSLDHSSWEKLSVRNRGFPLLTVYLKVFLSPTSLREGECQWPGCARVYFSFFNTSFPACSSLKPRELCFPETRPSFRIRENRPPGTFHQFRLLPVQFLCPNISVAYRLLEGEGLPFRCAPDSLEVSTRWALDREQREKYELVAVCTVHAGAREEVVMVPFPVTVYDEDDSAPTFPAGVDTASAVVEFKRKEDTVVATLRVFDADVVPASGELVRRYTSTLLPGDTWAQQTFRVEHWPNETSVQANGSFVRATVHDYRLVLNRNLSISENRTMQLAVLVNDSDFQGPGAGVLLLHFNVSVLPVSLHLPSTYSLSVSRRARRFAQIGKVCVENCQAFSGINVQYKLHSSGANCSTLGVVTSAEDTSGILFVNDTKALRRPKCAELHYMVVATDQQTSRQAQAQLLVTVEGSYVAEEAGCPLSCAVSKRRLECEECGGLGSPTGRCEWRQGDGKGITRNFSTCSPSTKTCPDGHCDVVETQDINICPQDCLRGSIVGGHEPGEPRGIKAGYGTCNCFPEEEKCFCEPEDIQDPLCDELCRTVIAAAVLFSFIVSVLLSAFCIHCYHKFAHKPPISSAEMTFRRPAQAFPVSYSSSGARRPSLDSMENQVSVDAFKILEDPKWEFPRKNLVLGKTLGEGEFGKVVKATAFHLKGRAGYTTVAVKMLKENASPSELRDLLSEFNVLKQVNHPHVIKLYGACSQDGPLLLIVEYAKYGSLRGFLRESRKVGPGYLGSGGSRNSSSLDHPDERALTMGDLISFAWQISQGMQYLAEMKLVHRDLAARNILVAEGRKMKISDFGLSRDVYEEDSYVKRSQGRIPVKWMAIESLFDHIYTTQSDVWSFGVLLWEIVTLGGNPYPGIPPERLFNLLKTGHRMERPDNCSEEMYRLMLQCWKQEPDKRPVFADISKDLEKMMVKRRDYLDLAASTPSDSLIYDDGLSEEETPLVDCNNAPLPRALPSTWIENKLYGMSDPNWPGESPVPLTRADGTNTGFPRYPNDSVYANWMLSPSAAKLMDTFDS
Sequence of SGK3 (human) (Q96BR1 whole entry, looked up): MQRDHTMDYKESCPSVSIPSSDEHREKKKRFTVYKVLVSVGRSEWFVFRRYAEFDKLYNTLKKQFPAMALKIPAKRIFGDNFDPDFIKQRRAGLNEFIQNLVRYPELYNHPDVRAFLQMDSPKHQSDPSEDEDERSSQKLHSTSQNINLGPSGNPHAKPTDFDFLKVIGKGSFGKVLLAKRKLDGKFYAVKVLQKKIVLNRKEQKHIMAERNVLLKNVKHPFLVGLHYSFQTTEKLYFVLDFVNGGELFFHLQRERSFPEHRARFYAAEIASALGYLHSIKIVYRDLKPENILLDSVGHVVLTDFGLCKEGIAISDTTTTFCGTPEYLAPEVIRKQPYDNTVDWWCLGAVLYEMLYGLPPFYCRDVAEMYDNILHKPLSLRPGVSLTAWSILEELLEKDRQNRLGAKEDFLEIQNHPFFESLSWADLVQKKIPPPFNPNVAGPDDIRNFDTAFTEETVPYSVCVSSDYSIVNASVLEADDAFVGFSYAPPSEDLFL
Sequence of MLTK (human) (Q9NYL2 whole entry, looked up): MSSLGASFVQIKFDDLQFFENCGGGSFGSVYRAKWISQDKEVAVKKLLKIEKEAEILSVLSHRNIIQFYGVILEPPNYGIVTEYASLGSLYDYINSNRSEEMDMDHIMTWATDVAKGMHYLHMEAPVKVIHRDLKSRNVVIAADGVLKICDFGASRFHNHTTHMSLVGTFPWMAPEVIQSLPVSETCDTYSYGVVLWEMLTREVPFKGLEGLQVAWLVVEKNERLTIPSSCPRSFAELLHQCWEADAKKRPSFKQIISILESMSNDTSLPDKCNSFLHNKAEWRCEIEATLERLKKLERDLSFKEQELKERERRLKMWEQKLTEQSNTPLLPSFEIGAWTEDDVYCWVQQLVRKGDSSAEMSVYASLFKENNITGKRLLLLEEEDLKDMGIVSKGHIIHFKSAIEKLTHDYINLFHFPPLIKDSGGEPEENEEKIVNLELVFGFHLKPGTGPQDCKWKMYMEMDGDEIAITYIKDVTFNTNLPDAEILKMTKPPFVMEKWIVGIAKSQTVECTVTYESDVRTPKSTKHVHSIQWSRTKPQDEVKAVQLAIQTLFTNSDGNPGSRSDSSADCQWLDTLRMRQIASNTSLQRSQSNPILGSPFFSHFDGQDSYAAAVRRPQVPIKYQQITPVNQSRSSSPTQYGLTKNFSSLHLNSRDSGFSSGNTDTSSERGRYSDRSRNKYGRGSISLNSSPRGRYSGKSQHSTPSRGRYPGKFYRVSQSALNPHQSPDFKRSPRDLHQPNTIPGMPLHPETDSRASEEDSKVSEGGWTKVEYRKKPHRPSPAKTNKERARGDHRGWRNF
Sequence of STK10 (human) (O94804 whole entry, looked up): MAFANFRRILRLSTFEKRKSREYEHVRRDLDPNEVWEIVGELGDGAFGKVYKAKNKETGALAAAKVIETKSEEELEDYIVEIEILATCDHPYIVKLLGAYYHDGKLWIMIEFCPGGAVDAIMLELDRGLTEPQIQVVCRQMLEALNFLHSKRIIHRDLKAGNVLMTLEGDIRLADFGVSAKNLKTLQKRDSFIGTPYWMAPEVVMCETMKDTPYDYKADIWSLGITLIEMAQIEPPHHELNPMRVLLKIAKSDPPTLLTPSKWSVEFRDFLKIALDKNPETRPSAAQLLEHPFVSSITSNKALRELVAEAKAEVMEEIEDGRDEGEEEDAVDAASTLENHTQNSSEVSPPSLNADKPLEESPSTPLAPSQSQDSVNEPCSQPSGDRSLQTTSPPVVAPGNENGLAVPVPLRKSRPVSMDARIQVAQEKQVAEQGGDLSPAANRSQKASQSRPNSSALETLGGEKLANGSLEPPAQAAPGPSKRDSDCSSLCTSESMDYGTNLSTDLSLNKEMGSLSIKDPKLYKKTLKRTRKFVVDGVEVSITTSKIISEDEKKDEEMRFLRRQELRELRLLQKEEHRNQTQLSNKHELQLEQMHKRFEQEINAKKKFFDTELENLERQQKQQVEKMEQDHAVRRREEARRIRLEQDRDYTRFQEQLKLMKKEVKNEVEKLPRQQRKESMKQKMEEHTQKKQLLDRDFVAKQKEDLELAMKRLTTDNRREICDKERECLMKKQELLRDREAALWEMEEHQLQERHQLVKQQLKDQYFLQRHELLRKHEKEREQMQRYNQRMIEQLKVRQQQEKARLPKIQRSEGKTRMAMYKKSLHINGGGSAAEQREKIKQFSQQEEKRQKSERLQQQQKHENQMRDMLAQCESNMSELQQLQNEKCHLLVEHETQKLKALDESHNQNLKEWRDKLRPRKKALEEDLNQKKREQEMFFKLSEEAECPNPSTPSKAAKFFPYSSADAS
Sequence of MAP3K7 (human) (O43318 whole entry, looked up): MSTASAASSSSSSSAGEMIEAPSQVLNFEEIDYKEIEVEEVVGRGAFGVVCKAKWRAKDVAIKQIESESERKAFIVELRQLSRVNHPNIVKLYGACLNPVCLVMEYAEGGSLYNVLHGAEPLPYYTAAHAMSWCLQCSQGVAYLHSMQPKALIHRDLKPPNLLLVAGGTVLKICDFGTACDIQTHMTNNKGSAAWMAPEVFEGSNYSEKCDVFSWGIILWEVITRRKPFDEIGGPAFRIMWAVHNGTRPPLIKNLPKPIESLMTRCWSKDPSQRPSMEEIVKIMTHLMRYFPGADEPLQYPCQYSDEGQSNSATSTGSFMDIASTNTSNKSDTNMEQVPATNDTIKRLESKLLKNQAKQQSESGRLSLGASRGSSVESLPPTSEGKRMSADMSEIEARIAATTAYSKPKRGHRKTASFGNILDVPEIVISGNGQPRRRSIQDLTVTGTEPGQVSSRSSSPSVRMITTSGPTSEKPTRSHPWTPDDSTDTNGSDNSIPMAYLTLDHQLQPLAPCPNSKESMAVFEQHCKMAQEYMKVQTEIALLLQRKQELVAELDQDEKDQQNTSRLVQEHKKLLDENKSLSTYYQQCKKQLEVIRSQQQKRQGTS
Sequence of MAP4K2 (human) (Q12851 whole entry, looked up): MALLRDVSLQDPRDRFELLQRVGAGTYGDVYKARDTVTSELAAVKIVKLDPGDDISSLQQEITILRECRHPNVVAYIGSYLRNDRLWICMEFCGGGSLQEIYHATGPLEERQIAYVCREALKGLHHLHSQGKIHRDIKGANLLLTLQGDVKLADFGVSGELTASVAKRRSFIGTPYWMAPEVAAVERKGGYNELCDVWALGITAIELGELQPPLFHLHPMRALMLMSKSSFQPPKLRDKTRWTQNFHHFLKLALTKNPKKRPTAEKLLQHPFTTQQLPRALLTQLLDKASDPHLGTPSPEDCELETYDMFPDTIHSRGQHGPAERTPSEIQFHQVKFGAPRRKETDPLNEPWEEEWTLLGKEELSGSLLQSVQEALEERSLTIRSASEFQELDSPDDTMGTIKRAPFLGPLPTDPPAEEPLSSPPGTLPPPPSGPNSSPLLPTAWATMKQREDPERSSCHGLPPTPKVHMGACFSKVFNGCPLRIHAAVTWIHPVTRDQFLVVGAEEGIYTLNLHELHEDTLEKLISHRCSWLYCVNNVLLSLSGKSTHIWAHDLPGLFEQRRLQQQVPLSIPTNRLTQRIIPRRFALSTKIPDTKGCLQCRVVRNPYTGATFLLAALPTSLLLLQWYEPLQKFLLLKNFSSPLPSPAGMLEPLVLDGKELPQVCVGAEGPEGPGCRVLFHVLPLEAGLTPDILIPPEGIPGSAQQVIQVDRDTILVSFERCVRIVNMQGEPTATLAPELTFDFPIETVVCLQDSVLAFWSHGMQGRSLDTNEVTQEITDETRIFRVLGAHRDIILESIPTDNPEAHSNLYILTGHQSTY
Sequence of RET (human), P07949 [M918T] (P07949 whole entry M918T, looked up): as the sequence (P07949 whole entry, looked up) above, with M918T counted along it
Sequence of RET (human), P07949 [V804M] (P07949 whole entry V804M, looked up): as the sequence (P07949 whole entry, looked up) above, with V804M counted along it

Cc1ccc(C(=O)Nc2ccc(CN3CCN(C)CC3)c(C(F)(F)F)c2)cc1C#Cc1cnc2[nH]ncc2c1
inhibition [1]: 93.6% | inhibition [2]: 97.8% | inhibition [3]: 51% | inhibition [4]: 76% | inhibition [5]: 95% | inhibition [6]: 97.1% | inhibition [7]: 78% | inhibition [8]: 96.2% | inhibition [9]: 81% | inhibition [10]: 99.8% | inhibition [11]: 78% | inhibition [12]: 100% | inhibition [13]: 97.8% | inhibition [14]: 63% | inhibition [15]: 82% | inhibition [16]: 58% | inhibition [17]: 90% | inhibition [18]: 90.5% | inhibition [19]: 64% | inhibition [20]: 99.8% | inhibition [21]: 85% | inhibition [22]: 94.8% | inhibition [23]: 89% | inhibition [24]: 90.6% | inhibition [25]: 81% | inhibition [26]: 65% | inhibition [27]: 67% | inhibition [28]: 83% | inhibition [29]: 92.1% | inhibition [30]: 98.6% | inhibition [31]: 90% | inhibition [32]: 59% | inhibition [33]: 82% | inhibition [34]: 55% | inhibition [35]: 77% | inhibition [36]: 70% | inhibition [37]: 89% | inhibition [38]: 96.8% | inhibition [39]: 54% | inhibition [40]: 59% | inhibition [41]: 96.2% | inhibition [42]: 84% | inhibition [43]: 52% | inhibition [44]: 51% | inhibition [45]: 82% | inhibition [46]: 97.2% | inhibition [47]: 86% | inhibition [48]: 79% | inhibition [49]: 86% | inhibition [50]: 97.2% | inhibition [51]: 86% | inhibition [52]: 52% | inhibition [53]: 97.6% | inhibition [54]: 97.8% | inhibition [55]: 97.6% | inhibition [56]: 91.9% | inhibition [57]: 95.8% | inhibition [58]: 83% | inhibition [59]: 76%
